Assays:
[1] = test system: anti-Fy^a monoclonal antibody (LM487); assay: Biopanning of phage-peptide libraries with anti-Fy^a LM487; format: binding, Murine; details: three rounds of panning
Excerpt: (§1) Three different phage libraries from New England Biolabs. (Ph.D. 7 and Ph.D. 12 displaying linear 7- and 12-mer peptides, respectively and Ph.D. C7C displaying 7-mer peptides constrained by a disulphide bridge at their termini) and a linear 15mer library (kindly provided by Prof. George P. Smith, University of Missouri) were used in biopanning experiments with 10 different monoclonal antibodies and a polyclonal preparation (Table 1).
(§2) For each target antibody/library combination, a separate well of a 96-well Immulon 4 flat-bottomed ELISA plate (Thermo Labsystems) was coated with 5 μg of antibody in 150 μl ELISA coating buffer (15 mM Na2CO3, 35 mM NaHCO3, pH9.6). Plates were sealed and incubated at 4° C. overnight. Unbound antibody was discarded and 350 μl of blocking buffer (0.1M NaHCO3/3% skimmed milk powder) was added to each well. Plates were sealed and incubated for 1 hour at 4° C. The blocking buffer was removed and the wells were washed six times with 300 μl TBS/0.1% Tween 20. Approximately 2×10^11 plaque forming units (pfu) in 100 μl TBS/0.1% Tween 20 were added to each well and the plates were incubated at room temperature for 1 hour. Wells were washed ten times with 300 μl TBS/0.1% Tween 20. […] The specificity of peptide-antibody binding was subsequently determined using both phage ELISA and SPOTs techniques.

[2] = test system: anti-Fy^a monoclonal antibody (LM487); assay: SPOTs membrane hybridisation with anti-Fy^a antibody; format: binding, Murine
Protocol: (§3) The peptide mimotopes were synthesised by the SPOT method (Frank; 1992) using F-moc chemistry. The peptides were anchored to an amino-PEG derivatised cellulose membrane (Intavis AG) and synthesised as discrete spots. Synthesis was by stepwise elongation of the peptide chain from C-terminus to the N-terminus, by manual pipetting of the respective amino acids, according to the Sigma Genosys protocol. Incubation times were modified when using Intavis AG membranes. After addition of the final amino acid, the terminal residues and side chains of the peptides were deprotected and the membrane was washed with methanol; air dried and then stored at −20° C. prior to use.
A membrane was placed in a 50 ml Falcon tube and blocked overnight at 4° C. with gentle agitation in TBS/0.25% Tween 20/5% skimmed milk powder. A 2 μg/ml dilution of the primary (1°) antibody (monoclonal or polyclonal) was prepared in TBS/0.25% Tween20/5% skimmed milk powder before incubation with the membrane for 1 hour at room temperature on a spiral rotor. Following 4 washes, each for 5 minutes with 20 ml of TBS/0.25% Tween20, the membrane was incubated for 1 hour at room temperature with a 1/5000 dilution of the secondary (2°) antibody, prepared in TBS/0.25% Tween20/5% skimmed milk powder. […] Bound antibody was detected by chemiluminescence. […]

[3] = test system: polyclonal anti-RhD preparation (Human Anti-D Ig); assay: SPOTs membrane hybridisation with polyclonal anti-RhD; format: binding; details: FIG. 8; Spots 1-25 = RhD81-105; Spots 26-28 = RhD68, RhD71, RhD79; Spot 29 CPep75 and Spot 30 CPep76 negative controls
Protocol: as §3
A membrane was placed in a 50 ml Falcon tube and blocked overnight at 4° C. with gentle agitation in TBS/0.25% Tween 20/5% skimmed milk powder. A 2 μg/ml dilution of the primary (1°) antibody (monoclonal or polyclonal) was prepared in TBS/0.25% Tween20/5% skimmed milk powder before incubation with the membrane for 1 hour at room temperature on a spiral rotor. Following 4 washes, each for 5 minutes with 20 ml of TBS/0.25% Tween20, the membrane was incubated for 1 hour at room temperature with a 1/5000 dilution of the secondary (2°) antibody, prepared in TBS/0.25% Tween20/5% skimmed milk powder. Peroxidase labelled rabbit anti-mouse IgG (Sigma) was used for the detection of the murine anti-Fy^a (LM487) and anti-Fy^b (LM447) 1° antibodies and peroxidase labelled goat anti-human IgG (Pharmacia) for the detection of the human 1° antibodies. Following 4 washes, each for 5 minutes with 20 ml of TBS/0.25% Tween20, the membrane was blotted to remove excess fluid. Bound antibody was detected by chemiluminescence. ECL detection reagents (Amersham Biosciences) were mixed and overlaid on the membrane for 2 minutes. The chemiluminescent substrate was removed and the membrane blotted to remove excess fluid. Positive spots were visualised following exposure to Hyperfilm ECL (Amersham Biosciences) for a series of short incubation times (5 seconds to 10 minutes). […]

[4] = test system: anti-RhD monoclonal antibody T10 (LHM76/55); assay: Biopanning of phage-peptide libraries with anti-RhD T10; format: binding, Human; details: phage-peptide libraries; three rounds of panning
Excerpt: as §1
(§4) For each target antibody/library combination, a separate well of a 96-well Immulon 4 flat-bottomed ELISA plate (Thermo Labsystems) was coated with 5 μg of antibody in 150 μl ELISA coating buffer (15 mM Na2CO3, 35 mM NaHCO3, pH9.6). Plates were sealed and incubated at 4° C. overnight. Unbound antibody was discarded and 350 μl of blocking buffer (0.1M NaHCO3/3% skimmed milk powder) was added to each well. Plates were sealed and incubated for 1 hour at 4° C. The blocking buffer was removed and the wells were washed six times with 300 μl TBS/0.1% Tween 20. Approximately 2×10^11 plaque forming units (pfu) in 100 μl TBS/0.1% Tween 20 were added to each well and the plates were incubated at room temperature for 1 hour. Wells were washed ten times with 300 μl TBS/0.1% Tween 20. Bound phage were eluted by incubation with 100 μl of 0.2M glycine-HCl/BSA, pH2.2 (1 mg/ml) for 10 minutes, then neutralised with 15 μl of 1M Tris-HCL (pH9.1). An aliquot of the Round 1 eluate was removed and titred. The remainder of the eluted phage were amplified by infection of E. coli ER2538 cells for 4.5 hours at 37° C. The cultures were centrifuged for 10 minutes at 10,000 rpm at 4° C. The supernatants were recovered, ⅙ volume PEG/NaCl (20% polyethylene glycol 8000; 2.5M NaCl) added, then incubated overnight at 4° C. The PEG-precipitated phage were centrifuged at 10,000 rpm for 15 minutes at 4° C. The supernatant was removed and the phage pellet resuspended in 200 μl TBS. Two further rounds of panning were undertaken and approximately 2×10^11 pfu of the Round 2 or Round 3 amplified eluates were used as input phage. Round 3 eluates were titrated but not amplified. Individual plaques were amplified and subjected to PCR amplification, prior to DNA sequence analysis. The specificity of peptide-antibody binding was subsequently determined using both phage ELISA and SPOTs techniques.

[5] = test system: anti-Fy^a monoclonal antibody (LM487); assay: Phage ELISA (capture ELISA) of phage-peptides on coated anti-Fy^a antibody; format: binding, Murine; details: FIG. 3; 19 Fya phage-peptide clones (Fya1-18 & Fya25); OD450 greater than 0.1 considered positive
Protocol: (§5) The ability of the recovered phage-peptides to react with the antibodies used in their selection was confirmed by capture ELISA. A 10 μg/ml stock of appropriate monoclonal antibody was prepared in ELISA coating buffer and 150 μl aliquots were added to wells of an Immulon 4 ELISA plate, and then incubated overnight at 4° C. Unbound antibody was discarded and the wells were blocked with 350 μl of blocking buffer (0.1M NaHCO3/3% skimmed milk powder) for 1 hour at 4° C. The wells were washed three times with 300 μl TBS/0.5% Tween 20 and 100 μl of selected phage culture supernatants were added to appropriate wells for 1 hour at room temperature. Unbound phage were removed and the wells washed six times with 300 μl TBS/0.5% Tween 20. A 1:5000 dilution of horseradish peroxidase (HRP) conjugated anti-M13, secondary antibody was prepared in blocking buffer and 100 μl aliquots added to each well. Following incubation for 1 hour at room temperature the wells were washed six times with 300 μl TBS/0.5% Tween 20. To develop the reactions, a 200 μl aliquot of o-phenylenediamine dihydrochloride (OPD) substrate (Sigma) was added to each well. The absorbance at 450 nm was measured, following incubation at room temperature for 1 hour, by a microplate ELISA reader. An OD450 signal greater than 0.1 was considered positive.
Phage ELISA analysis of 19 “Fy^a” phage-peptide clones (Peptides Fya1-18 & Fya25; see Table 3 for sequence details) confirmed the binding specificity of the LM487 antibody for the Fy^a phage-peptides.

[6] = test system: anti-RhE monoclonal antibody E0002 (NaTH110-1D6); assay: Biopanning of phage-peptide libraries with anti-RhE E0002; format: binding, Human; details: IgM antibody
Excerpt: as §1
as §4, with “Two further rounds of panning were undertaken and approximately 2×10^11 pfu of the Round 2 or Round 3 amplified eluates were used as input phage. Round 3 eluates were titrated but not amplified. Individual plaques were amplified and subjected to PCR amplification, prior to DNA sequence analysis.” left out

[7] = test system: anti-RhE monoclonal antibody E0003 (NaTH110-IH4); assay: Biopanning of phage-peptide libraries with anti-RhE E0003; format: binding, Human; details: IgM antibody
Excerpt: as §1, §2

[8] = test system: anti-RhE monoclonal antibody E0002; assay: SPOTs membrane hybridisation with anti-RhE monoclonal E0002; format: binding, Human; details: FIG. 9; 36 RhE peptide mimotopes; CPep75 (Spot 37), CPep76 (Spot 38) negative controls
Protocol: as §3
(§6) A membrane was placed in a 50 ml Falcon tube and blocked overnight at 4° C. with gentle agitation in TBS/0.25% Tween 20/5% skimmed milk powder. A 2 μg/ml dilution of the primary (1°) antibody (monoclonal or polyclonal) was prepared in TBS/0.25% Tween20/5% skimmed milk powder before incubation with the membrane for 1 hour at room temperature on a spiral rotor. Following 4 washes, each for 5 minutes with 20 ml of TBS/0.25% Tween20, the membrane was incubated for 1 hour at room temperature with a 1/5000 dilution of the secondary (2°) antibody, prepared in TBS/0.25% Tween20/5% skimmed milk powder. Peroxidase labelled rabbit anti-mouse IgG (Sigma) was used for the detection of the murine anti-Fy^a (LM487) and anti-Fy^b (LM447) 1° antibodies and peroxidase labelled goat anti-human IgG (Pharmacia) for the detection of the human 1° antibodies. Following 4 washes, each for 5 minutes with 20 ml of TBS/0.25% Tween20, the membrane was blotted to remove excess fluid. Bound antibody was detected by chemiluminescence. ECL detection reagents (Amersham Biosciences) were mixed and overlaid on the membrane for 2 minutes. The chemiluminescent substrate was removed and the membrane blotted to remove excess fluid. Positive spots were visualised following exposure to Hyperfilm ECL (Amersham Biosciences) for a series of short incubation times (5 seconds to 10 minutes).
The RhD, RhE and Rhe peptide mimotopes (see Tables 4 & 5) were synthesised by SPOTs and hybridisation of the membranes was undertaken with the appropriate antibodies (Table 1). FIGS. 7-10 show examples of peptide mimotopes reacting specifically with the antibody originally used in their selection.

[9] = test system: anti-Fy^b monoclonal antibody (LM447); assay: Phage ELISA (capture ELISA) of phage-peptides on coated anti-Fy^b antibody; format: binding, Murine; details: FIG. 1; LM447 coated from 10 μg/ml stock; phage culture supernatant; OD450 greater than 0.1 considered positive; 20 phage assayed
Protocol: as §5
The phage ELISA results confirmed the binding of the anti-Fy^b monoclonal, LM447. A 10 μg/ml stock of this monoclonal antibody was prepared in ELISA coating buffer and 150 μl aliquots were added to wells of an Immulon 4 ELISA plate, and then incubated overnight at 4° C. Unbound antibody was discarded and the wells were blocked with 350 μl of blocking buffer for 1 hour at 4° C. The wells were washed three times with 300 μl TBS/0.5% Tween 20 and 100 μl of selected phage culture supernatants were added to appropriate wells for 1 hour at room temperature. Unbound phage were removed and the wells washed six times with 300 μl TBS/0.5% Tween 20. A 1:5000 dilution of horseradish peroxidase (HRP) conjugated anti-M13, secondary antibody was prepared in blocking buffer and 100 μl aliquots added to each well. Following incubation for 1 hour at room temperature the wells were washed six times with 300 μl TBS/0.5% Tween 20. To develop the reactions, 200 μl aliquots of o-phenylenediamine dihydrochloride (OPD) substrate (Sigma) was added to each well. The absorbance at 450 nm was measured following incubation at room temperature for 1 hour. The absorbance values at 450 nm, confirmed the binding of 14 (Peptides Fyb1, Fyb2, Fyb4-5, Fyb7-13, Fyb25, 27 & 28) of the 20 phage assayed (see FIG. 1).

[10] = test system: anti-Fy^b monoclonal antibody (LM447); assay: SPOTs membrane hybridisation with anti-Fy^b antibody; format: binding, Murine; details: FIG. 2; 20 Fyb peptides in duplicate; CPep75 (Spot 21) positive control; 2 μg/ml primary antibody; chemiluminescence
Protocol: as §3, §6

## Fya15: Fya peptide mimotope, Table 3; contains sequence identical to the Fy^a polymorphism (SDGDYGA)
[1]
  Selection by biopanning with anti-Fy^a monoclonal antibody LM487: bound
[2]; FIG. 4, 37 peptides Fya1-37 synthesised as SPOTs
  SPOTs binding of anti-Fy^a antibody LM487 to membrane-synthesised peptide: strong positive signal

## RhD79: RhD peptide mimotope, Table 4 (LPWYRH)
[3]
  SPOTs recognition by polyclonal anti-RhD: recognised
[4]
  Selection by biopanning with anti-RhD monoclonal antibody T10: identified through biopanning

## Fya14: Fya peptide mimotope, Table 3 (GDWLHW)
[5]
  Phage ELISA binding of phage-peptide to anti-Fy^a antibody LM487: failed to bind

## RhE24: RhE peptide mimotope, Table 5 (GPSYYALITRYLGAA)
[6]
  Selection by biopanning with anti-RhE antibody E0002: selected
[7]
  Selection by biopanning with anti-RhE antibody E0003: selected
[8]
  SPOTs binding of anti-RhE monoclonal antibody E0002: Specific binding

## Fya20: Fya peptide mimotope, Table 3; contains sequence identical to the Fy^a polymorphism (GIAEDDYGALSW)
[1]
  Selection by biopanning with anti-Fy^a monoclonal antibody LM487: bound

## RhE18: RhE peptide mimotope, Table 5 (IPEEALRARFKT)
[6]
  Selection by biopanning with anti-RhE antibody E0002: selected
[7]
  Selection by biopanning with anti-RhE antibody E0003: selected
[8]
  SPOTs binding of anti-RhE monoclonal antibody E0002: Specific binding

## RhD71: RhD peptide mimotope, Table 4 (VPWFRAP)
[3]
  SPOTs recognition by polyclonal anti-RhD: recognised
[4]
  Selection by biopanning with anti-RhD monoclonal antibody T10: identified through biopanning

## PDGDYGANLEAAAP [CPep118, 14-mer immunisation peptide used to generate the anti-Fy^a antibody, reference compound]
[2]; FIG. 5, Spots 1-37 = Fya 1-37, Spots 38-40 = Fya17, Fya25, Fya35, Spot 41 Cpep75, 42 Cpep76, 43 CPep118, 44 Fyb1, membranes hybridised in parallel with both antibodies
  Reciprocal SPOTs hybridisation: binding of anti-Fy^a monoclonal antibody: Fy^a-specificity

## MYQDTPPPRKNV [Fyb1]
[9]
  Phage ELISA binding of phage-peptide to anti-Fy^b antibody LM447 (absorbance at 450 nm): phage ELISA signals equally as strong as Peptides Fyb12 and Fyb13
[10]
  SPOTs binding of anti-Fy^b antibody LM447 to membrane-synthesised peptide: failed to react

Source: patent US20100216661A1, “Diagnostic Assay” (priority 2007, published 2010)
